Data published in US11987804B2, “Rapamycin resistant cells” (Seattle Children's Hospital, priority 2018, dated 2024).

Key:
[1] = test system: CD4+ T cells; assay: Selective expansion of DISC/HA-FOXP3 edited Treg cells (flow cytometry for HA tag and FOXP3); type: cell-based, human; details: 50 ng/mL IL-2, 10 nM Rapamycin or 100 nM AP21967
Description: This Example illustrates the use of gene editing technology to knock-in a construct encoding the DISC and a promoter upstream of the endogenous FOXP3 (Forkhead box P3) locus in CD4+ T cells. […] In brief, a CRISPR/CAS9 ribonucleoprotein containing a guide RNA (gRNA) specific for a locus 5′ of exon 1 of FOXP3 was used in combination with an adeno-associated virus 6 (AAV6) donor template for FOXP3 gene editing The gRNA included a spacer having the sequence of SE ID NO:58. An ectopic MND promoter was introduced to drive DISC expression upstream of endogenous FOXP3. Expression of FOXP3 was designed to be in-frame with an N-terminal hemagglutinin (HA) epitope tag and nuclear localization sequence to generate a chimeric protein.

[2] = test system: CD4+ T cells; assay: Regulatory T cell marker phenotype of DISC-expressing edited Treg cells; type: cell-based, human; details: IL-2 50 ng/mL, rapamycin 10 nM or AP21967 100 nM
[3] = test system: primary human CD4+ T cells; assay: Three-phase expansion protocol for μDISC edTreg (flow cytometry HA/FOXP3, cell counts); type: cell-based; details: for Day-3 flow cytometry Q4 / Day-10 flow cytometry Q3 / Day-10 flow cytometry Q4 / Day-15 flow cytometry Q4: Expansion Phase 0 additive 50 μg/mL IL-2, 10 nM rapamycin or 100 nM AP21967; for Day-3 flow cytometry Q1 / Day-10 flow cytometry Q1 / Day-15 flow cytometry Q1: Q1 = HA- FOXP3+; for Day-10 flow cytometry Q3 / Day-10 flow cytometry Q4 / Day-10 flow cytometry Q1: after Expansion Phase 1; for Day-15 flow cytometry Q4 / Day-15 flow cytometry Q3 / Day-15 flow cytometry Q1: after Expansion Phase 2
Description: Recovered cells after Expansion Phase 0 were then transferred to the G-Rex flask and expanded in rapamycin (Expansion Phase 1; Days 3-10) to allow DISC edTreg enrichment, followed by addition of anti-CD3/CD28 beads (Expansion Phase 2; Days 10-15). The same AAV construct as shown in FIG. 13A was used in this experiment.
After Expansion Phase 1 (Day 10), successfully edited cells were assessed by flow cytometry.

[4] = test system: μDISC GFP edTreg; assay: In vivo expansion of μDISC GFP edTreg by rapamycin in humanized mouse model; parameters: species or system NOD-scid-IL2RgNULL (NSG) mice; details: for CD25+ GFP+ edTreg cells / CD25− GFP+ edTreg cells / CD127+ GFP+ edTreg cells / CD127− GFP+ edTreg cells: peripheral blood seven days post-transfer, rapamycin 0.1 mg/kg i.p. every other day, representative mouse
Description: This Example describes experiments performed to test the capacity of edTreg cells expressing a μDISC construct to be expanded in vivo by rapamycin treatment. […] There are also conditions under which it is not desirable to expand Tregs, for example, in some cases of infection. Therefore, a useful feature of engineered cells provided herein having Treg features is the ability to exert control on expansion in vivo. Experiments were carried out to determine whether rapamycin could increase the number of μDISC edTregs in vivo using a humanized mouse model, which included human cells transferred into immune-incompetent NOD-scid-IL2RgNULL (NSG) mice. For these experiments, cells were edited using an AAV donor to drive cis-linked expression of the μDISC and endogenous FOXP3 from the MND promoter. This AAV donor template incorporates a GFP fusion protein at the N-terminal of endogenous FOXP3. The GFP-labeled FOXP3 fusion protein was used to facilitate the ability to detect gene-edited cells within the in vivo cell samples. […] The beads were then removed at Day −1. […] In the three-phase expansion protocol used in this experiment, the timing of Expansion Phase 0 flow cytometry was on Day 2. Recovered cells after Expansion Phase 0 were then transferred to the G-rex® flask and expanded in the presence of 10 nM rapamycin to select edited cells (Expansion Phase 1; Days 3-9) and to allow DISC edTreg enrichment, followed by flow cytometry and addition of anti-CD3/CD28 beads (Expansion Phase 2; Days 9-16; in the presence of 10 nM rapamycin). Flow cytometry was performed at Days 2, 9, 12, and 16 to monitor edited GFP+FOXP3+ cell expansion.
NSG mice were pre-treated with rapamycin in order to saturate rapamycin binding proteins and provide rapamycin in serum.
The μDISC GFP edTregs (or mock-edited cells) were then injected i.v. according to the following general procedure. Starting from Day −4, intraperitoneal (i.p.) injection of rapamycin 0.1 mg/kg was carried out every other day until Day 21. At Day 0, irradiation was performed and μDISC edTreg was i.v. injected. Peripheral blood samples were collected to either test for rapamycin levels (Day 2) or for flow cytometry (Days 7, 14, 21, and 28) to track the phenotype and number of transferred human T cells including GFP+ edTreg cells.
To illustrates expansion of μDISC GFP edTreg in rapamycin treated vs. vehicle, flow cytometry results from peripheral blood seven days post-transfer into NSG are shown in Table 11 below (Gate: live, hCD45+, hCD4+), where human T cell markers and GFP+ are shown for a representative mouse from each cohort.

[5] = Expansion Phase 0 additive, 10 nM rapamycin or 100 nM AP21967
[6] = peripheral blood Day 7 and Day 14, rapamycin treated vs. vehicle

Row | Structure (SMILES) | percentage of double positive cells (expressing HA-FOXP3), DISC/HA-FOXP3 ([1]; 7 day post-treatment) [%] | percentage of double positive cells (expressing HA-FOXP3), Mock ([1]; 7 day post-treatment) [%] | percentage of double positive cells (expressing HA-FOXP3), DISC/HA-FOXP3 ([1]; 15 day post-treatment) [%] | CD25+ FOXP3+ [2] [%] | CD25+ FOXP3− [2] [%] | CD 127+ FOXP3+ [2] [%] | CD 127+ FOXP3− [2] [%] | CTLA4+ FOXP3+ [2] [%] | CTLA4+ FOXP3− [2] [%] | ICOS+ FOXP3+ [2] [%] | ICOS+ FOXP3− [2] [%] | LAG3+ FOXP3+ [2] [%] | LAG3+ FOXP3− [2] [%] | Day-3 flow cytometry Q4 [3] [%] | Day-3 flow cytometry Q3 [3, 5] [%] | Day-3 flow cytometry Q1 [3, 5] [%] | Day-10 flow cytometry Q3 [3] [%] | Day-10 flow cytometry Q4 [3] [%] | Day-10 flow cytometry Q1 [3, 5] [%] | Day-15 flow cytometry Q4 [3] [%] | other results
1 | CO[C@H]1[C@@H](O)[C@H](C)C[C@H](C)/C=C/C=C/C=C(\C)[C@@H](c2c[nH]c3c(C)cccc23)C[C@@H]2CC[C@@H](C)[C@@](O)(O2)C(=O)C(=O)N2CCCC[C@H]2C(=O)O[C@H]([C@H](C)C[C@@H]2CC[C@@H](O)[C@H](OC)C2)C[C@H](O)[C@H](C)/C=C(\C)[C@H]1O [AP21967, C-16-(S)-7-methylindolerapamycin] | 45.7 | 0.033 | 82.1 | 22.5 | 20.4 | 1.63 | 40.3 | 13.6 | 30.8 | 36.8 | 2.99 | 8.81 | 31.5 | 86.00 | 1.74 | 0.39 | 5.54 | 13.3 | 0.59 | 10.7 | Day-3 flow cytometry Q2 ([3]; Q2 = HA+ FOXP3+ successfully edited cells, Expansion Phase 0 additive, 10 nM rapamycin or 100 nM AP21967): 11.90%; Day-15 flow cytometry Q3 [3, 5]: 4.93%; Day-15 flow cytometry Q1 [3, 5]: 0.33%
2 | CO[C@H]1C[C@@H]2CC[C@@H](C)[C@@](O)(O2)C(=O)C(=O)N2CCCC[C@H]2C(=O)O[C@H]([C@H](C)C[C@@H]2CC[C@@H](O)[C@H](OC)C2)CC(=O)[C@H](C)/C=C(\C)[C@@H](O)[C@@H](OC)C(=O)[C@H](C)C[C@H](C)/C=C/C=C/C=C/1C [Rapamycin, (3S,6R,7E,9R,10R,12R,14S,15E,17E,19E,21S,23S,26R,27R,34aS)-9,10,12,13,14,21,22,23,24,25,26,27,32,33,34,34a-hexadecahydro-9,27-dihydroxy-3-[(1R)-2-[(1S,3R,4R)-4-hydroxy-3-methoxycyclohexyl]-1-methylethyl]-10,21-dimethoxy-6,8,12,14,20,26-hexamethyl-23,27-epoxy-3H-pyrido[2,1-c][1,4] oxaazacyclohentriacontine-1,5,11,28,29 (4H,6H,31H)-pentone] | 47.6 | 0.022 | 85.6 | 28.9 | 14.5 | 1.47 | 40.8 | 15.5 | 29.4 | 38.2 | 2.38 | 7.86 | 33.3 | 91.70 | 1.48 | 0.38 | 9.31 | 20.1 | 0.44 | 15.7 | CD25+ GFP+ edTreg cells ([4]; No Radiation): 79.9%; CD25− GFP+ edTreg cells ([4]; No Radiation): 8.37%; CD127+ GFP+ edTreg cells ([4]; No Radiation): 0.57; CD127− GFP+ edTreg cells ([4]; No Radiation): 88.2; CD25+ GFP+ edTreg cells ([4]; Radiation (200 Gy), gate live, hCD45+, hCD4+): 82.6%; CD25− GFP+ edTreg cells ([4]; Radiation (200 Gy)): 5.52%; CD127− GFP+ edTreg cells ([4]; Radiation (200 Gy)): 87.6; CD127+ GFP+ edTreg cells ([4]; Radiation): 0.50; number of GFP+ cells in serum sample [4, 6]: higher; percentage of GFP+ cells [4, 6]: higher; levels of μDISC GFP edTreg in the peripheral blood (FIG. 17) ([4]; tracked weekly for four weeks, rapamycin treated vs. untreated mice): higher levels of μDISC GFP edTreg at each time point, peaking between two and three weeks after cell transfer; Day-15 flow cytometry Q3 [3, 5]: 7.56%; Day-15 flow cytometry Q1 [3, 5]: 1.08%
